Series [1] concerns the target T1, Gamma-aminobutyric acid receptor subunit alpha-1 (Homo sapiens) (UniProt P14867).
T1 sequence (whole entry): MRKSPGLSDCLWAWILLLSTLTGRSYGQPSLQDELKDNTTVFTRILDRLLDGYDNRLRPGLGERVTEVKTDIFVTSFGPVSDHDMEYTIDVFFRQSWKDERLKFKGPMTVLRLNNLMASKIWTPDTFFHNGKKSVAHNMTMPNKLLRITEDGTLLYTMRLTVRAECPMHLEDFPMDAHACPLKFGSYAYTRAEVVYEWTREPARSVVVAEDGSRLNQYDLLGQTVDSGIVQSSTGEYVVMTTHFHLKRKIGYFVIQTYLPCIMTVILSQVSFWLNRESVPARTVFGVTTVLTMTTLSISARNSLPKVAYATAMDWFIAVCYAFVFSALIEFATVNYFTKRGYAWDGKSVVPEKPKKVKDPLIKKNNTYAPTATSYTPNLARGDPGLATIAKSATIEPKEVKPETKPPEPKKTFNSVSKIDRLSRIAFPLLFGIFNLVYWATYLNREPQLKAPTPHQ
Nature of the series: Agonist activity at recombinant GABAA receptor subunit alpha-1 expressed in CHO cells at 3 uM by sensitive fluorometric read-out assay relative to midazolam. In kind it is functional, cell-based.

Series [2] addresses T2, Gamma-aminobutyric acid receptor subunit alpha-2 (Homo sapiens) (UniProt P47869).
T2 sequence (whole entry): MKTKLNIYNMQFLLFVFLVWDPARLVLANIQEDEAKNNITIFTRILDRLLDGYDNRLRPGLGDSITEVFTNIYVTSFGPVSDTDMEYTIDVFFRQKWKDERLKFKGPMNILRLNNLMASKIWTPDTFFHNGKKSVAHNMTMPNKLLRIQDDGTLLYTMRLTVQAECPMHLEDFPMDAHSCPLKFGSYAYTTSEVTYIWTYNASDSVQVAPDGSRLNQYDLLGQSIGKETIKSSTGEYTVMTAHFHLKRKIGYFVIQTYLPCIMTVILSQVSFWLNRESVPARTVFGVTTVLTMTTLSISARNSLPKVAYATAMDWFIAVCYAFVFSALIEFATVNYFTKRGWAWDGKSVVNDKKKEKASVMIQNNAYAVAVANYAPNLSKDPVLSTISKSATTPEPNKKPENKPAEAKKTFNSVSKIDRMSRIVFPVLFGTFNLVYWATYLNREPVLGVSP
Nature of the series: Agonist activity at recombinant GABAA receptor subunit alpha-2 expressed in CHO cells at 3 uM by sensitive fluorometric read-out assay relative to midazolam. Type of series: functional, cell-based.

Series [3] deals with T3, Gamma-aminobutyric acid receptor subunit alpha-1 (Homo sapiens, UniProt P14867).
T3 sequence (P14867 whole entry): T1 sequence (whole entry)
Nature of the series: Displacement of [3H]flumazenil from GABAA receptor subunit alpha-1 expressed in CHO cells. Type of series: cell-based. (In a radioligand displacement assay an active substance lowers the binding of a labelled ligand.)

Series [4] concerns the target T4, Gamma-aminobutyric acid receptor subunit alpha-2 (Homo sapiens, UniProt P47869).
T4 sequence (P47869 whole entry): T2 sequence (whole entry)
The experiment in a line: Displacement of [3H]flumazenil from GABAA receptor subunit alpha-2 expressed in CHO cells. In kind it is cell-based.

The nature of series [5]: Intrinsic clearance in rat liver microsomes at 5 uM after 60 mins. Type of series: ADME, Microsome. For orientation: Liver microsomes are vesicles of endoplasmic reticulum, rich in cytochrome P450 enzymes.
Series [6] has as its target T1, Gamma-aminobutyric acid receptor subunit alpha-1 (Homo sapiens). Nature of the series: Agonist activity at recombinant GABAA receptor subunit alpha-1 expressed in CHO cells at 1 uM by sensitive fluorometric read-out assay relative to midazolam. In kind it is functional, cell-based.
Series [7] concerns the target T2, Gamma-aminobutyric acid receptor subunit alpha-2 (Homo sapiens). Nature of the series: Agonist activity at recombinant GABAA receptor subunit alpha-2 expressed in CHO cells at 1 uM by sensitive fluorometric read-out assay relative to midazolam. Type of series: functional, cell-based.

Calls of active or inactive are those of the source. No cut-off for these calls is given here.

For 17 compounds, Efficacy, IC50 and microsomal CLint results are on record in ChEMBL document CHEMBL1681636, “Exploring subtype selectivity and metabolic stability of a novel series of ligands for the benzodiazepine binding site of the GABAA receptor” (Bioorg Med Chem Lett, 2011).

As usually defined, the IC50 is the concentration needed to halve the response being measured. A low value points to inhibition by little substance. One may read the microsomal CLint as the capacity of the preparation to metabolise the compound, expressed as a volume cleared per time. Low values mean slow turnover, high ones rapid turnover.

For `Clc1ccc(-n2nc3c4c(ncc3c2OCc2ccccc2Cl)CCCCC4)cc1`, the Efficacy stood at 114% in series [1] and 96% in series [2]. The IC50 in series [3] was 242 nM; in series [4], 605 nM.
The corresponding values for `Fc1ccccc1COc1c2cnc3c(c2nn1-c1ccc(Cl)cc1)CCCC3` are 31%, 83%, 64 nM and 154 nM.
The corresponding values for `Clc1ccccc1COc1c2cnc3ccccc3c2nn1-c1ccc2c(c1)OCO2` are -15%, 19%, 50 nM and 155 nM.
As for `Clc1ccc(-n2nc3c4c(ncc3c2Oc2ccccc2Cl)CCCC4)cc1`, the Efficacy entry in series [1] and in series [2] was “inactive” in each case. Also, the IC50 in series [3] and in series [4] was over 3000 nM in each case.
For the compound `Clc1ccc(-n2nc3c4c(ncc3c2OCc2ccccc2Cl)CCOC4)cc1`, the Efficacy is 4% in series [1] and 32% in series [2]. Further, the IC50 in series [4] worked out at 461 nM.
As to `Clc1ccc(-n2nc3c(cnc4ccccc43)c2OCc2ccccc2Cl)cc1`, the Efficacy was found to be 13% in series [1] and 22% in series [2]. Besides, the IC50 came out at 64 nM in series [3] and 265 nM in series [4].
The like results for `Fc1ccccc1-n1nc2c(cnc3ccccc32)c1OCc1ccccc1Cl` were, in that order, -8%, 17%, 1 nM and 2 nM.
For `Clc1ccc(-n2nc3c4c(ncc3c2OCc2cccc(Cl)c2)CCCC4)cc1`, the results for the Efficacy in series [1] and in series [2] were 38% and 50%, respectively.
On to `Clc1ccc(-n2nc3c4c(ncc3c2OCC2CC2)CCCC4)cc1`, for which the Efficacy stood at 18% in series [1] and 64% in series [2]. The IC50 in series [3] stood at 94 nM; in series [4], 185 nM.
On to `FC(F)(F)c1ccccc1COc1c2cnc3c(c2nn1-c1ccc(Cl)cc1)CCCC3`, for which the Efficacy is 84% in series [1] and 94% in series [2].
As for `CC1(C)CCc2ncc3c(OCc4ccccc4Cl)n(-c4ccc(Cl)cc4)nc3c2C1`, the Efficacy in series [1] was 4%; in series [2] it was 23%. Besides, the concentration for half-maximal inhibition (IC50) in series [3] was 67 nM; in series [4], 213 nM.
With `Clc1ccc(-n2nc3c4c(ncc3c2OCc2ccccc2Cl)CCCC4)cc1`, the values for the Efficacy in series [1] and in series [2] were 25% and 50%, respectively. For the same compound, the IC50 in series [3] came to 46 nM; in series [4] it was 271 nM. For the same compound, the microsomal CLint at 5 µM in series [5] came out at 128 µL/min/mg.
As for `Clc1ccc(-n2nc3c(cnc4ccccc43)c2OCC2CC2)cc1`, the figures for the Efficacy in series [1] and in series [2] were 37% and 36%, respectively. Moreover, the results for the IC50 in series [3] and in series [4] were 74 nM and 472 nM, respectively.
For `O=C1C2C=Nc3ccccc3C2=NN1c1ccc(Cl)cc1` (centres undefined) [CGS-9896], the IC50 in series [3] was 1 nM; in series [4] it was 4 nM. The Efficacy in series [6] stood at 38%; in series [7], 47%.
On to `Clc1ccc(COc2c3cnc4c(c3nn2-c2ccc(Cl)cc2)CCCC4)cc1`, for which the Efficacy in series [1] is 20%; in series [2] it was 42%. In addition, the figures for the IC50 in series [3] and in series [4] were 157 nM and 177 nM, respectively.
The like results for `Fc1ccc(COc2c3cnc4c(c3nn2-c2ccc(Cl)cc2)CCCC4)cc1` were, in that order, 24%, 41%, 50 nM and 57 nM.
As for `Clc1ccc(-n2nc3c(cnc4ccc(-n5ccnc5)cc43)c2OCC2CC2)cc1`, the Efficacy in series [1] came to 80%; in series [2], 35%. Besides, the IC50 in series [3] was determined as 134 nM; in series [4] it was 2110 nM.
